Reference: patent US5654303A, “Alkyl amine derivatives of substituted quinoxaline 2,3-diones as glutamate receptor antagonists” (Warner-Lambert Company, priority 1995, dated 1997)
pIC50: −log10 of the molar value.

What was measured:
[1] = molecular target: kainate site (non-NMDA receptor); assay: Kainate site (non-NMDA receptor) binding (London and Coyle), Table 1 'KA'
AMPA receptors = assay: AMPA receptor binding (Honore et al.), Table 1
CF-1 strain mice = assay: maximal electroshock (MES) assay in mice; format: in vivo; details: IV
Excerpt: Additionally, a preliminary indicator of in vivo CNS activity related to anticonvulsant activity and potential neuroprotection, is a maximal electroshock (MES) assay in CF-1 strain mice (20-25 g) performed with corneal electrodes by conventional methods as described previously (Krall, et al., Epilepsia, 1988;19:409-428).
MES (IV) Data for Compound 1 from Table 1 [drawing 23]

Compound	IC50 KA [1] [µM]	pIC50 (AMPA receptors)	also measured
Cc1c([N+](=O)[O-])cc2[nH]c(=O)c(=O)[nH]c2c1CN(C)C [Compound 1]	4.483	5.82	Ataxic (%) (CF-1 strain mice; 3 min, 10 mg/kg): 0%; Protected (%) (CF-1 strain mice; 3 min, 10 mg/kg): 40%; Ataxic (%) (CF-1 strain mice; 3 min, 30 mg/kg): 20%; Protected (%) (CF-1 strain mice; 3 min, 30 mg/kg): 60%; Ataxic (%) (CF-1 strain mice; 30 min, 10 mg/kg): 40%; Protected (%) (CF-1 strain mice; 30 min, 10 mg/kg): 60%; Ataxic (%) (CF-1 strain mice; 30 min, 30 mg/kg): 40%; Protected (%) (CF-1 strain mice; 30 min, 30 mg/kg): 80%
CCN(CC)Cc1c(C)c([N+](=O)[O-])cc2[nH]c(=O)c(=O)[nH]c12 [Compound 2]	6.647	6.16	–
CCCN(CCC)Cc1c(C)c([N+](=O)[O-])cc2[nH]c(=O)c(=O)[nH]c12 [Compound 3]	24.93	5.79	–

The next lines start with results.

IC50 KA [1] [µM]	pIC50 (AMPA receptors)	Compound	also measured
5.331	5.49	Cc1c([N+](=O)[O-])cc2[nH]c(=O)c(=O)[nH]c2c1CN(C)C1CCCCC1 [Compound 6]	–
8.23	5.94	Cc1c([N+](=O)[O-])cc2[nH]c(=O)c(=O)[nH]c2c1CN(C)C(C)C [Compound 7]	–
20.50	5.33	CCCCN(CCCC)Cc1c(C)c([N+](=O)[O-])cc2[nH]c(=O)c(=O)[nH]c12 [Compound 4]	–
5.128	5.90	Cc1c([N+](=O)[O-])cc2[nH]c(=O)c(=O)[nH]c2c1CNC1CCCCC1 [Compound 5]	–
